Measurements: US5587373A, “2-acyloxycephem derivatives” (Farmitalia Carlo Erba S.r.l., priority 1993, dated 1996)
pKi: −log10 of the molar value. Like-named read-outs stand apart in the source and are kept apart here.

Molecular target: T1, human leucocyte elastase (HLE) (Homo sapiens, UniProt P08246)
T1 construct: purchased Calbiochem
T1 sequence (P08246 30-267): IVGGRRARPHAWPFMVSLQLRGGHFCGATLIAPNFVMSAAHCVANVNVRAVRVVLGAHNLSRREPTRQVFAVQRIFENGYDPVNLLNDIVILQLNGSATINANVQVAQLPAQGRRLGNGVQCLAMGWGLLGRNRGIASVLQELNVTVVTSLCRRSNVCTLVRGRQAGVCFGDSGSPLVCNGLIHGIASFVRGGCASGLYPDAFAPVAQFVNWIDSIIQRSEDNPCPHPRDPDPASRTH
Experiment: HLE (human leucocyte elastase) inhibition kinetics
Type: biochemical
Conditions: 37° C., pH 7.4; for kinact/KI: rate of formation of the HLE-inhibitor complex, read-out: "Efficacy" K5 /Ki
Description: Vs =steady state rate Vz =zero time rate Vo =rate at [I]=0 Km =Michaelis constant for the enzyme substrate pair (independently determined under the same experimental conditions). Full details of the Experimental Protocol are reported in […] et al., Eur. J. Med. Chem. 1992, 27, 875-890.

[1] = Table 2, apparent dissociation constant of HLE-inhibitor complex at steady rate, read-out: Potency Ki^SS
[2] = Table 3, * outside determination limits
[3] = Table 3, * outside determination limits, read-out: "Potency" Ki ^33

SMILES	pKi [1]	"Efficacy" K5 /K1 [2] [M⁻¹ s⁻¹]	pKi [3]	kinact/KI (Table 2) [M⁻¹ s⁻¹]
CO[C@H]1C(=O)N2C(C(=O)C(C)(C)C)=C(C)C(OC(=O)c3ccccc3)S(=O)(=O)[C@H]12 (stereo partly drawn) [Compound 2, 2-Benzoyloxy-4-tert-butylcarbonyl-7α-methoxy-3-methyl-3-cephem 1,1-dioxide]	> 8.70			
CO[C@H]1C(=O)N2C(C(=O)C(C)(C)C)=C(C)C(OC(=O)c3ccc4ccccc4c3)S(=O)(=O)[C@H]12 (stereo partly drawn) [Compound 11]		< 2		
CO[C@H]1C(=O)N2C(C(=O)C(C)(C)C)=C(CSc3nnnn3C)C(OC(=O)c3ccccc3)S(=O)(=O)[C@H]12 (stereo partly drawn) [Compound 19, 2-Benzoyloxy-4-tert-butylcarbonyl-7α-methoxy-3-(1-methyl-1,2,3,4-tetrazol-5-yl)thiomethyl-3-cephem 1,1-dioxide]		< 2		
CO[C@H]1C(=O)N2C(C(=O)c3ccccc3)=C(C)C(OC(=O)c3ccccc3)S(=O)(=O)[C@H]12 (stereo partly drawn) [Compound 24, 2-Benzoyloxy-7α-methoxy-3-methyl-4-phenylcarbonyl-3-cephem 1,1-dioxide]		8		
CO[C@H]1C(=O)N2C(C(=O)c3ccccc3)=C(C)C(OC(=O)c3ccc(C(=O)O)cc3)S(=O)(=O)[C@H]12 (stereo partly drawn) [Compound 25, 4-Benzoyl-2-(4-carboxybenzoyl)oxy-7α-methoxy-3-methyl-3-cephem 1,1-dioxide]		29	4.47	
CO[C@H]1C(=O)N2C(C(=O)C(C)(C)C)=C(C)C(OC(=O)c3ccc(CSc4nc(=O)c(O)nn4C)cc3)S(=O)(=O)[C@H]12 (stereo partly drawn) [Compound 38, 4-tert-Butylcarbonyl-2-{4-[(2,5-dihydro-6-hydroxy-2-methyl-5-oxo-1,2,4-triazin-3-yl)thiomethyl]benzoyloxy}-7α-methoxy-3-methyl-3-cephem 1,1-dioxide]		< 2	3.15	
CO[C@H]1C(=O)N2C(C(=O)C(C)(C)C)=C(C)C(OC(=O)c3ccc(C(=O)c4ccccc4)cc3)S(=O)(=O)[C@H]12 (stereo partly drawn) [Compound 83, 2-[4-(Benzoyl)benzoyloxy]-4-tert-butylcarbonyl-7α-methoxy-3-methyl-3-cephem 1,1-dioxide]		2	3.30	
CCCCC(CC)C(=O)OC1C(C)=C(C(=O)C(C)(C)C)N2C(=O)[C@H](OC)[C@H]2S1(=O)=O (stereo partly drawn) [Compound 96, 4-tert-Butylcarbonyl-2-(2-ethylhexanoyl)oxy-7α-methoxy-3-methyl-3-cephem 1,1-dioxide]		< 2		
CO[C@H]1C(=O)N2C(C(=O)C(C)(C)C)=C(C)CS(=O)(=O)[C@H]12 [FCE 25500, reference compound]	5.89			60
CO[C@H]1C(=O)N2C(C(=O)N3CCCC3)=C(CSc3nc(=O)c(O)nn3C)CS(=O)(=O)[C@H]12 [L-659,286, reference compound]	7.12			9200
